Assay results from ChEMBL document CHEMBL1909046, “DrugMatrix in vitro pharmacology data”.
pIC50, pKi: −log10 of the molar value. Where a SMILES comes first, the peptide text is derived from it. Bridges are numbered along the chain shown (N, C = ends). [ ]: non-standard residue; d: D form. The star is where a group is joined. Threoninol(2S,3R) = C[C@@H](O)[C@H](CO)N*

Tests used:
[1] = DRUGMATRIX: beta-Lactamase enzyme inhibition (substrate: Nitrocefin); set-up: species or system Bacillus cereus; conditions: Not Active = under 50% inhibition at 10 µM
Glycine receptor = Glycine receptor (Rattus norvegicus, UniProt P22771+P24524+P07727+P20781); assay type: cell membranes, Wistar, Spinal cord, Membrane; also: in other assays of this panel Not Active means under 50% inhibition at 10 µM
Leukotriene C4 synthase = target: T1, Leukotriene C4 synthase (Cavia porcellus, UniProt A6XA80); assay type: tissue-based, Lung;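 also: enzyme inhibition assay of leukotriene C4 synthase, using LTA4 as the substrate; in other assays of this panel Not Active means under 50% inhibition at 10 µM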
T1 sequence (A6XA80 whole entry): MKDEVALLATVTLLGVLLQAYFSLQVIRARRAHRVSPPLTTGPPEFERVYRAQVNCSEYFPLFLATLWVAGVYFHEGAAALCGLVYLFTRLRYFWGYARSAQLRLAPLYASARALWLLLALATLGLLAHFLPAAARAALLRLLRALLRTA

[2] = target: T2, Angiotensin-converting enzyme (Oryctolagus cuniculus, UniProt P12822); assay type: tissue-based, Lung;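 also: enzymatic inhibition of angiotensin-converting enzyme measured with FAPGG as the substrate; in other assays of this panel Not Active means under 50% inhibition at 10 µM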
T2 sequence (P12822 whole entry): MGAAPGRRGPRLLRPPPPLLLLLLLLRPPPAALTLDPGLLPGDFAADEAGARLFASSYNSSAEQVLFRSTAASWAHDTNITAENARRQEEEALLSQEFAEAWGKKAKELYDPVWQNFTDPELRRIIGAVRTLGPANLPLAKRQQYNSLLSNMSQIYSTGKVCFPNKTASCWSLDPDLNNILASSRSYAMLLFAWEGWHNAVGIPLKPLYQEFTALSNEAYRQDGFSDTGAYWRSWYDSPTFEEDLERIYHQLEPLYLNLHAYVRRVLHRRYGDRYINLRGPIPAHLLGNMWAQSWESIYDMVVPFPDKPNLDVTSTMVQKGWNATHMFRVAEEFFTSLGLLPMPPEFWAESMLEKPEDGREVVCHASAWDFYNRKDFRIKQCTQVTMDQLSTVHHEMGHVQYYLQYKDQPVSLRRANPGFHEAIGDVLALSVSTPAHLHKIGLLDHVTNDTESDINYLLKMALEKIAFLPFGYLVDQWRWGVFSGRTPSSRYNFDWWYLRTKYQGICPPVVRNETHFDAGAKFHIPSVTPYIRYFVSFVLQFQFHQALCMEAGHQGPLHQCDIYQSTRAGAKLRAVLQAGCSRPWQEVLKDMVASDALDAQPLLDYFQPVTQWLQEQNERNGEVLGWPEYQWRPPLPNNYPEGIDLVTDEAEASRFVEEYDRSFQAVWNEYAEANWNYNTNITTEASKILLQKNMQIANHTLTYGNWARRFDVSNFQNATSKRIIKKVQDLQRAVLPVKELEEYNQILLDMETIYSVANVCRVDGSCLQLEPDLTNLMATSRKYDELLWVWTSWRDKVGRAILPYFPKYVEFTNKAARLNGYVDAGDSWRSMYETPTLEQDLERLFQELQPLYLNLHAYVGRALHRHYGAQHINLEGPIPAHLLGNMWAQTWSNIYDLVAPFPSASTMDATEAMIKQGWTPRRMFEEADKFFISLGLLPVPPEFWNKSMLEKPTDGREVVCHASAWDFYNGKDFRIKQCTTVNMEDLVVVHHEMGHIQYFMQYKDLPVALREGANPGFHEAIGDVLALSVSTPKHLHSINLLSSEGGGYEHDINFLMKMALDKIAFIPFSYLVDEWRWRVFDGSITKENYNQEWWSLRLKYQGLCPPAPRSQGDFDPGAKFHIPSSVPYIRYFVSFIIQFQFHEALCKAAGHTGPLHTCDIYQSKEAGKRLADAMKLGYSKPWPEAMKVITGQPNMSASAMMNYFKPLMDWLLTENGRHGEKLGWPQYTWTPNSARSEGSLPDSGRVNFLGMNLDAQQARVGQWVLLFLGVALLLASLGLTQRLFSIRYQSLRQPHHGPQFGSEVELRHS

[3] = target: Matrix metalloproteinase-9 (Homo sapiens, UniProt P14780); assay: biochemical; assay type: cell-based;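 also: inhibition of isolated MMP-9 enzyme activity toward a synthetic peptide substrate, from the DrugMatrix protease screening panel; in other assays of this panel Not Active means under 50% inhibition at 10 µM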
[4] = target: T3, 5-hydroxytryptamine receptor 1A (Rattus norvegicus, UniProt P19327); assay type: cell membranes, Membrane; conditions: cho-k1; also: in other assays of this panel Not Active means under 50% inhibition at 10 µM
T3 sequence (P19327 whole entry): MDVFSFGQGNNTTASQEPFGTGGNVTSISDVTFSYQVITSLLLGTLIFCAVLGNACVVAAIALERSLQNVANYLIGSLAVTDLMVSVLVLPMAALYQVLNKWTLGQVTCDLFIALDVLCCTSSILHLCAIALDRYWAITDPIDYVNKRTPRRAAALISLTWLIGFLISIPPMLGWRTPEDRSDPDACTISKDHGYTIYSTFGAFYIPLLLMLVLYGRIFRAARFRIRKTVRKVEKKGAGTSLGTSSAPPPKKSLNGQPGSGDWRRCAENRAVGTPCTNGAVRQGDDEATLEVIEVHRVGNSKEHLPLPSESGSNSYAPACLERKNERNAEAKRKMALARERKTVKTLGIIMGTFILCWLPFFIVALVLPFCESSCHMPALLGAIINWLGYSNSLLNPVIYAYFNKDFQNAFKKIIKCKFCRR

Adenosine receptor A3 = target: T4, Adenosine receptor A3 (Homo sapiens, UniProt P0DMS8); assay type: cell membranes, CHO-K1, Membrane
T4 sequence (P0DMS8 whole entry): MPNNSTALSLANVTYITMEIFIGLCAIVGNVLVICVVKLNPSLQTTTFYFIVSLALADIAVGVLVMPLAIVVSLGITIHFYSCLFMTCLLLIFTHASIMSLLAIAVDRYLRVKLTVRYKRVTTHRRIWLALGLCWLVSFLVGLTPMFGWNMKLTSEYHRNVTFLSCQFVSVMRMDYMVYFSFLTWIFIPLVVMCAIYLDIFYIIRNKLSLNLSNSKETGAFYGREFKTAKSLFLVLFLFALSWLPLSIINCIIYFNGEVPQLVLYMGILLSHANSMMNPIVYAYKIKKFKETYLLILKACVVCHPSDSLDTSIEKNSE

Matrix metalloproteinase-9, sequence (P14780 whole entry): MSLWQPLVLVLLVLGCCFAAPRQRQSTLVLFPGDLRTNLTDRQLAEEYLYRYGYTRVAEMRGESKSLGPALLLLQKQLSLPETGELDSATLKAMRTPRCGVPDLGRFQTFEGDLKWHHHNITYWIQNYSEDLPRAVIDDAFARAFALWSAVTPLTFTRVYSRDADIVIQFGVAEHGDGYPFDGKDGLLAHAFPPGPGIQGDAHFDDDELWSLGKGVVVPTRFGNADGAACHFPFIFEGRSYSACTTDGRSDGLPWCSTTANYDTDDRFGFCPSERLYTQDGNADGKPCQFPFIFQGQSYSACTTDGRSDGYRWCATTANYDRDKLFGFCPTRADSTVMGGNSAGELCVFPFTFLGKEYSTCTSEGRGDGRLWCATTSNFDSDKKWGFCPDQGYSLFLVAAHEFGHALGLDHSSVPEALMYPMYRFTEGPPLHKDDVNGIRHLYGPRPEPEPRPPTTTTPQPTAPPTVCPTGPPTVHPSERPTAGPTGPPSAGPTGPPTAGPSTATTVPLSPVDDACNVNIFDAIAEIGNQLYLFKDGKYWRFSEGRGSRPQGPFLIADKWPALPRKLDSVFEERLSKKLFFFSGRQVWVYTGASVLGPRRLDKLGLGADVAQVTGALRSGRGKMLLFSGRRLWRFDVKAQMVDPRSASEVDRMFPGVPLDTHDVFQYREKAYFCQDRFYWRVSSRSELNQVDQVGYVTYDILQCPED

Row | Structure (SMILES) | IC50 [1] | Ki [1] | IC50 (Glycine receptor) | IC50 (Leukotriene C4 synthase) | IC50 [2] | IC50 [3] | IC50 [4] | IC50 (Adenosine receptor A3; cho-k1) | pIC50 (Adenosine receptor A3; read-out: IC50) | pKi (Adenosine receptor A3; read-out: Ki) | Ki (Glycine receptor) | Ki (Leukotriene C4 synthase) | Ki [2] | Ki [3] | Ki [4] | Ki (Adenosine receptor A3; cho-k1)
1 | COc1ccccc1C(=O)N1CCC(Cc2ccccc2)CC1 | Not Active | Not Active | Not Active | Not Active | Not Active | Not Active | Not Active | Not Active |  |  |  |  |  |  |  | 
2 | Cc1ccccc1C(=O)N1CCC(Cc2ccccc2)CC1 | Not Active | Not Active | Not Active | Not Active | Not Active | Not Active | Not Active | Not Active |  |  |  |  |  |  |  | 
3 | O=C1CC[C@H](N2C(=O)c3ccccc3C2=O)C(=O)N1 | Not Active | Not Active | Not Active | Not Active | Not Active | Not Active | Not Active | Not Active |  |  |  |  |  |  |  | 
4 | N=C(Nc1ccccc1)Nc1ccccc1 | Not Active | Not Active | Not Active | Not Active | Not Active | Not Active | Not Active | Not Active |  |  |  |  |  |  |  | 
5 | C[C@@H](O)[C@H](CO)NC(=O)[C@@H]1CSSC[C@H](NC(=O)[C@H](N)Cc2ccccc2)C(=O)N[C@@H](Cc2ccccc2)C(=O)N[C@H](Cc2c[nH]c3ccccc23)C(=O)N[C@@H](CCCCN)C(=O)N[C@@H]([C@@H](C)O)C(=O)N1 (H-[dF]CF[dW]KTC-{Threoninol(2S,3R)}; disulfide 2-7) | Not Active | Not Active | Not Active | Not Active | Not Active | Not Active | Not Active | Not Active |  |  |  |  |  |  |  | 
6 | S=C=Nc1cccc2ccccc12 [1-NAPHTHYLISOTHIOCYANATE] | Not Active | Not Active | Not Active | Not Active | Not Active | Not Active | Not Active |  | 5.21 | 5.46 |  |  |  |  |  | 
7 | C[C@](O)(CS(=O)(=O)c1ccc(F)cc1)C(=O)Nc1ccc(C#N)c(C(F)(F)F)c1 [(R)-BICALUTAMIDE] | Not Active | Not Active | Not Active | Not Active | Not Active | Not Active | Not Active | Not Active |  |  |  |  |  |  |  | 
8 | CCCC(=O)Nc1ccc(OCC(O)CNC(C)C)c(C(C)=O)c1 (centres undefined) [ACEBUTOLOL] | Not Active | Not Active | Not Active | Not Active | Not Active | Not Active | Not Active | Not Active |  |  |  |  |  |  |  | 
9 | CC(=O)Nc1ccc(O)cc1 [ACETAMINOPHEN] | Not Active | Not Active | Not Active | Not Active | Not Active | Not Active | Not Active | Not Active |  |  |  |  |  |  |  | 
10 | COc1cc2c(c3oc(=O)c4c(c13)CCC4=O)[C@@H]1C=CO[C@@H]1O2 [AFLATOXIN] | Not Active | Not Active | Not Active | Not Active | Not Active | Not Active | Not Active | Not Active |  |  | Not Active | Not Active | Not Active | Not Active | Not Active | Not Active
11 | N=C(N)NC(=O)c1nc(Cl)c(N)nc1N [AMILORIDE] | Not Active | Not Active | Not Active | Not Active | Not Active | Not Active | Not Active | Not Active |  |  |  |  |  |  |  | 
12 | Cc1cc(=O)n(-c2ccccc2)n1C [ANTIPYRINE] | Not Active | Not Active | Not Active | Not Active | Not Active | Not Active | Not Active | Not Active |  |  |  |  |  |  |  | 
13 | CN1C(=O)COc2c(C(=O)NC3CN4CCC3CC4)cc(Cl)cc21 (centres undefined) [AZASETRON] | Not Active | Not Active | Not Active | Not Active | Not Active | Not Active | Not Active | Not Active |  |  |  |  |  |  |  | 
14 | C[C@H]1C[C@H]2[C@@H]3CCC4=CC(=O)C=C[C@]4(C)[C@@]3(Cl)[C@@H](O)C[C@]2(C)[C@@]1(O)C(=O)CO [BECLOMETHASONE] | Not Active | Not Active | Not Active | Not Active | Not Active | Not Active | Not Active | Not Active |  |  |  |  |  |  |  | 
15 | CCOC(=O)[C@H](CCc1ccccc1)N[C@H]1CCc2ccccc2N(CC(=O)O)C1=O [BENAZEPRIL] | Not Active | Not Active | Not Active | Not Active | Not Active | Not Active | Not Active | Not Active |  |  |  |  |  |  |  | 
16 | Nc1c(CC(=O)O)cccc1C(=O)c1ccc(Br)cc1 [BROMFENAC] | Not Active | Not Active | Not Active | Not Active | Not Active | Not Active | Not Active | Not Active |  |  |  |  |  |  |  | 
17 | CCCCN1CCCCC1C(=O)Nc1c(C)cccc1C.Cl (centres undefined) [BUPIVACAINE HYDROCHLORIDE] | Not Active | Not Active | Not Active | Not Active | Not Active | Not Active | Not Active | Not Active |  |  |  |  |  |  |  | 
18 | O=C1CC2(CCCC2)CC(=O)N1CCCCN1CCN(c2ncccn2)CC1 [BUSPIRONE] | Not Active | Not Active | Not Active | Not Active | Not Active | Not Active |  | Not Active |  |  |  |  |  |  |  | 
19 | C[C@@]12C(=O)OC(=O)[C@]1(C)[C@H]1CC[C@@H]2O1 [CANTHARIDIN] | Not Active | Not Active | Not Active | Not Active | Not Active | Not Active | Not Active | Not Active |  |  |  |  |  |  |  | 
20 | O=NN(CCCl)C(=O)NCCCl [CARMUSTINE] | Not Active | Not Active | Not Active | Not Active | Not Active | Not Active | Not Active | Not Active |  |  |  |  |  |  |  | 
21 | CC1=C(C(=O)O)N2C(=O)[C@@H](NC(=O)[C@H](N)c3ccccc3)[C@H]2SC1 [CEPHALEXIN ANHYDROUS] | Not Active | Not Active | Not Active | Not Active | Not Active | Not Active | Not Active | Not Active |  |  |  |  |  |  |  | 
